US11351185B2, “Use of isovalerylspiramycins as anti-cancer agents to inhibit metastasis” (priority 2020, dated 2022)
Entries after “also recorded” stand apart in the source; their conditions may differ.

Key:
786-O and RCC4 cells = assay: Annexin V apoptosis flow cytometry, RCC cells; format: cell-based
Description: To confirm the cytotoxic effect observed in the glioblastoma cell lines, the inventors assessed ISP I's effect on renal cell carcinoma (RCC) cell lines (ACHN, UM-RC-2, RCC4 and 786-0). Cell viability was assessed similarly via CKK8 analysis. […] (FIG. 4C, D).
Cells (2×10^5) were plated in 6-well plates and treated with different concentrations of ISP I. Then the cells were harvested and washed three times with PBS. Cells were resuspended in 100 μl binding buffer and were incubated with 5 μl APC-conjugated Annexin V working solution, a product of BD bioscience (Franklin Lakes, N.J. USA), and 1 μl propidium iodide (PI), a product of Invitrogen, for 15 min at room temperature with protection from light. Data acquisition and quantification were processed with BD LSRFortessa flow cytometer, using FlowJo software (Ashland, Oreg. USA).

LN229-luc tumors = assay: Intracranial LN229-luc glioblastoma xenograft mouse model; format: in vivo, NSG mice
From the text: The inventors first assessed ISP I's anti-tumor activity in an intracranial mouse model (FIG. 11A). NSG mice were inoculated with 1×10^5 LN229-luc cells in the right-frontal cortex. After 7 days, intracranial tumor growth was confirmed via noninvasive in vivo bioluminescence imaging and mice were randomized into ISP I or DMSO (control) treatment groups.
Mice experiments were approved by the National Institute of Neurological Disorders and Stroke (NINDS) and National Cancer Institute (NCI) Animal Use and Care Committees. For intracranial xenografts establishment, NOD-Prkdc^scidII2rg^tmiWjl (NSG) mice (6-8 weeks old from the NCI-Frederick animal facility) were inoculated intracranially with 100,000 LN229-luc cells suspended in 2 μL Hank's Balanced Salt Solution (HBSS), a product of Crystalgen (Commack, N.Y. USA). After one week, luciferin signals were detected to confirm the survival of tumor cells in mice. The mice were assigned to the indicated groups according to the signal intensity, in order to keep the baseline balanced. ISP I was injected intraperitoneally daily at a dose of 66 mg/kg body weight for 24 days. The mice in control group were injected with the same volume of corn oil or saline. The viability of tumors was monitored every four days. […]

SELH = biological target: T1, SELH (Homo sapiens, UniProt Q8IZQ5); assay: Drug affinity responsive target stability (DARTS) assay; format: binding; parameters: endogenous in cells; host or cells: LN229; details: LN229 lysate; ISP I 40 μg/mL
T1 sequence (Q8IZQ5 1-122): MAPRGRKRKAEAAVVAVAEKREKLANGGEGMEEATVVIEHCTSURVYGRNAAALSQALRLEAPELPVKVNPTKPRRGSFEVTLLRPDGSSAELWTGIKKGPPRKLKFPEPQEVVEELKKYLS
Description: To identify ISP I's molecular target, the inventors performed drug affinity responsive target stability (DARTS) assay in LN229 cells.
The inventors discovered that the binding of ISP I to its target proteins temporarily locks them into a stable conformational structure, which prevents their recognition by proteases. After evading protease degradation, the identity of ISP I's target proteins was determined using mass spectroscopy.
DARTS assay data were taken to identify the target of ISP I in vitro. For this assay, the invenots used the protocol published by Lomenick et al., Proc. Nat'l Acad. Sci. USA 106: 21984 (2009). Briefly, LN229 cells were lysed with M-PER (Pierce) supplemented with protease and phosphatase inhibitors. After centrifugation at 14,000 rpm for 15 min, lysates were diluted to the same final volume and protein concentration with M-PER and were dissolved in TNC buffer [50 mM Tris-HCl (pH 8.0), 50 mM NaCl, 10 mM CaCl2)]. All steps were performed on ice or at 4° C. to help prevent premature protein degradation. […] Peptides were analyzed by LC/MS/MS on a Thermo LTQ-Orbitrap mass spectrometer with an Eksigent LC pump. For quantitative comparison of protein and peptide abundances, MS spectra were analyzed by means of the differential workflow of Rosetta Elucidator (Rosetta Inpharmatics).

[1] = test system: SELH-deficient LN229 cells; assay: CCK8 assay in SELH-deficient (CRISPR/CAS9) LN229 cells; format: cell-based; details: LN229 SELH knock out
From the text: SELH knockout LN229 cell lines and B16 were generated using the CRISPR/Cas9 technique described by Shalem et al., Science 343: 84 (2014). The gDNA for targeting SELH was designed as follows: Oligo 1, 5′-[…]-3′; Oligo 2, 5′-[…]-3′; the gDNA for targeting mouse SELH was designed as follows: Oligo 1, 5′-[…]-3′; Oligo 2, 5′-[…]-3′, and subcloned into Cas9 carrying vector (pX330). The two resultant plasmids and puromycin-expressing vector (pPGK-puro) were co-transfected at a ratio of 1:1:1 into LN229 or B16 cells using Lipofectamine 2000 (Invitrogen). Twenty-four hours later, the transfected cells were subjected to puromycin (Sigma) at 1 μg/mL for 7 days. One week after selection, the surviving clones were expanded, followed by extraction of total protein for standard western blotting analysis.
Cell viability was measured by Cell Counting Kit-8 (CCK-8, Dojindo Molecular Technologies, Tokyo, Japan). Cells were seeded in 96-well plates at a density of 3×10^3 cells/well and cultured for 24 hours before treatment with ISP I at different concentration. […] The absorbance in each well at a wavelength of OD450 was detected by the Synergy H1 microplate reader, a product of BioTek (Winooski, Vt. USA).

[2] = test system: mitochondrial ROS (superoxide); assay: MitoSOX staining, flow cytometry; format: cell-based; details: 24 hours
Description: Since glutathione peroxidase catalyzes the reduction of reactive oxidative species (ROS), the inventors assessed whether treatment with ISP I increased the generation of ROS in glioblastoma cell lines (LN229 and U251) and RCC cell lines (786-O and RCC4).
To detect changes in mitochondrial superoxide after treatment with ISP I, the inventors used the MitoSOX Red mitochondrial superoxide indicator kit, a product of ThermoFisher Scientific. […] Cells were incubated with 5 μM MitoSOX Red for 15 min at room temperature, followed by flow cytometry analysis. Excitation by means of a 561 nm laser and a 610/20 discriminating filter was applied by a BD LSRFortessa flow cytometer.

COC1C(O)CC(=O)OC(C)CC=CC=CC(OC2CCC(N(C)C)C(C)O2)C(C)CC(CC=O)C1OC1OC(C)C(OC2CC(C)(O)C(OC(=O)CC(C)C)C(C)O2)C(N(C)C)C1O (stereo not shown) [ISP I, 4″-isolvalerylspiramycin I]
apoptosis (Annexin V stain) (786-O and RCC4 cells): induced a dose-dependent apoptosis | tumor growth / burden (bioluminescence imaging) (LN229-luc tumors; 66 mg/kg body weight i.p. every day): reduced LN229-luc tumor burden compared with the untreated group; also recorded: significantly reduced tumor growth | response in tumor-derived bioluminescence images (LN229-luc tumors; three mice, day 24, 66 mg/kg i.p. daily): complete response | protein protected from protease (target identification by mass spectroscopy) (SELH): SELH was the most abundant primary protein present | sensitivity of SELH-deficient cells vs wild type (CCK8) [1]: resistance to ISP I; also recorded: SELH-deficient cells were resistant to ISP I treatment | mitochondrial ROS (MitoSOX) ([2]; LN229 and U251, 5 μg/mL or 10 μg/mL): increase of mitochondrial ROS accumulation; also recorded: higher intracellular ROS in a dose-dependent manner | mitochondrial ROS (MitoSOX) ([2]; RCC cells 786-O and RCC4, 5 μg/ml or 10 μg/ml): increase in mitochondrial ROS accumulation; also recorded: higher intracellular ROS in a dose-dependent manner
